Measured values as given in US12447135B2 (University of South Florida, priority 2021, dated 2025).
“Also recorded” adds a separate entry of the source. Where a name gives a salt, the structure may show the parent alone.

Key:
Type in all cases: cell-based, human
FFAR2 signaling [1] = experiment: cAMP-Glo assay, forskolin-induced cAMP in SK-N-SH cells; details: 10 μM compound, 10 μM forskolin
Experimental: FFAR2 is a Gi/o signaling receptor, which reduces cytosolic cAMP (Falomir-Lockhart et al., 2019). To determine the FFAR2 signaling activating potential of selected compounds, the cAMP-Glo™ Assay was used to measure intracellular cAMP. SK-N-SH cells (1×10^3 cells per well) were plated in a white 96-well plate for 24 h and then treated with 10 μM compounds and 10 μM forskolin (a positive control) dissolved in induction buffer. The cAMP levels were detected using a Luminescence Microplate Reader.

FFAR2 signaling [2] = experiment: Western blot of phospho-ERK1/2 in SK-N-SH cells (FFAR2 signal activation); details: 10 μM, 30 min
Experimental: To determine the FFAR2 signal activating property of selected compounds, SK-N-SH cells were treated with 10 μM of shortlisted compounds for 30 min at 37° C. and harvested for total protein extraction. […] After sonication, cell extracts were centrifuged at 8,000×g for 10 min at 4° C., and the supernatant was separated in a fresh tube. The total protein concentration of the supernatant was measured using a BCA protein assay kit. An equal amount of total protein (45 μg) from each sample was dissolved in loading buffer and loaded in 4% stacking gel and 10% separating SDS-PAGE gel and resolved at 100 V. Proteins were transferred on a 0.22 μm PVDF membrane and blots were developed with anti-ERK1/2, anti-phosphoERK1/2, ubiquitin (P4D1), and Aβ (6E10) primary antibodies followed by their secondary antibodies and bands were visualized using the Pierce™ Fast Western Blot Kit, ECL Substrate acquired using Syngene Pxi. Band densities were also quantified using NIH ImageJ software. β-actin was used as an internal control.

SK-N-SH cells = experiment: Aβ-induced neurotoxicity, MTT viability assay; details: 10 μM CATPB, 25 μM Aβ
Experimental: To determine the impact of FFAR2 inhibition on Aβ-induced neuronal cell toxicity, the MTT viability assay was performed (Ronicke et al., 2008). SK-N-SH cells (1×10^3 cells per well) were plated in a 96-well plate containing DMEM medium supplemented with 10% FBS and 1% antibiotics and grown at 37° C. for 24 h. Then, media was removed, and cells were washed with PBS before being replenished with DMEM media containing 1% FBS and 10 μM FFAR2 inhibitor (CATPB, Tocris) and incubated at 37° C. for 2 h. Then, cells were treated with Aβ 25-32 peptide (25 μM, Sigma) and incubated for 4 h. Afterward, the media was replaced with 100 μl of fresh media, and 10 μl of MTT reagent (5 mg/ml in phosphate buffer [pH 7.2]) was added and mixed in each well before an additional 4 h incubation. Then, DMSO (50 μl) was added in each well and mixed thoroughly to dissolve formazan crystals. The absorbance was measured at 570 nm.

Compound | cAMP upon Forskolin-stimulation, ascending order (FFAR2 signaling [1]) | descending order of phospho-ERK1/2 levels (FFAR2 signaling [2]) | Aβ-induced cell death / cell viability under FFAR2 inhibition (SK-N-SH cells)
C=C1C2CCC(C2)C1(C)C (centres unmarked) [Camphene] | Fenchol<Carvamenthenol<α-Terpineol<Carene<Pentanone<Octopamine<Camphene | Fenchol>Octopamine>Carvamenthenol>Camphene>Pentanone>Synephrine>Leucinamide>Carene>α-Terpineol>Breneol>L-Fenchone>D-Fenchone>Norpseudoephedrine HCl | –
CNCC(O)c1ccc(O)cc1 (centres unmarked) [Synephrine] | – | Fenchol>Octopamine>Carvamenthenol>Camphene>Pentanone>Synephrine>Leucinamide>Carene>α-Terpineol>Breneol>L-Fenchone>D-Fenchone>Norpseudoephedrine HCl | –
CC1(C)C2CCC1(C)C(O)C2 (centres unmarked) [Breneol] | – | Fenchol>Octopamine>Carvamenthenol>Camphene>Pentanone>Synephrine>Leucinamide>Carene>α-Terpineol>Breneol>L-Fenchone>D-Fenchone>Norpseudoephedrine HCl | –
O=C(O)C[C@H](Cc1ccc(C(F)(F)F)cc1)NC(=O)Cc1cccc(Cl)c1 [CATPB, reference compound] | – | – | further reduced cell viability; also recorded: further exacerbated Aβ-induced cell death
Carene | Fenchol<Carvamenthenol<α-Terpineol<Carene<Pentanone<Octopamine<Camphene | Fenchol>Octopamine>Carvamenthenol>Camphene>Pentanone>Synephrine>Leucinamide>Carene>α-Terpineol>Breneol>L-Fenchone>D-Fenchone>Norpseudoephedrine HCl | –
CC1(C)C(=O)[C@@]2(C)CCC1C2 [D-Fenchone] | – | Fenchol>Octopamine>Carvamenthenol>Camphene>Pentanone>Synephrine>Leucinamide>Carene>α-Terpineol>Breneol>L-Fenchone>D-Fenchone>Norpseudoephedrine HCl | –
NCC(O)c1ccc(O)cc1 (centres unmarked) [Octopamine] | Fenchol<Carvamenthenol<α-Terpineol<Carene<Pentanone<Octopamine<Camphene | Fenchol>Octopamine>Carvamenthenol>Camphene>Pentanone>Synephrine>Leucinamide>Carene>α-Terpineol>Breneol>L-Fenchone>D-Fenchone>Norpseudoephedrine HCl | –
CC1=CCC(C(C)(C)O)CC1 (stereo not drawn) [α-Terpineol] | Fenchol<Carvamenthenol<α-Terpineol<Carene<Pentanone<Octopamine<Camphene | Fenchol>Octopamine>Carvamenthenol>Camphene>Pentanone>Synephrine>Leucinamide>Carene>α-Terpineol>Breneol>L-Fenchone>D-Fenchone>Norpseudoephedrine HCl | –
Carvamenthenol | Fenchol<Carvamenthenol<α-Terpineol<Carene<Pentanone<Octopamine<Camphene | Fenchol>Octopamine>Carvamenthenol>Camphene>Pentanone>Synephrine>Leucinamide>Carene>α-Terpineol>Breneol>L-Fenchone>D-Fenchone>Norpseudoephedrine HCl | –
C[C@H](N)[C@@H](O)c1ccccc1 [Norpseudoephedrine HCl] | – | Fenchol>Octopamine>Carvamenthenol>Camphene>Pentanone>Synephrine>Leucinamide>Carene>α-Terpineol>Breneol>L-Fenchone>D-Fenchone>Norpseudoephedrine HCl | –
CC1(C)C(=O)[C@@]2(C)CC[C@H]1C2 [L-Fenchone] | – | Fenchol>Octopamine>Carvamenthenol>Camphene>Pentanone>Synephrine>Leucinamide>Carene>α-Terpineol>Breneol>L-Fenchone>D-Fenchone>Norpseudoephedrine HCl | –
CC(C)C[C@H](N)C(N)=O [Leucinamide] | – | Fenchol>Octopamine>Carvamenthenol>Camphene>Pentanone>Synephrine>Leucinamide>Carene>α-Terpineol>Breneol>L-Fenchone>D-Fenchone>Norpseudoephedrine HCl | –
